In PubChem BioAssay AID296 (DTP/NCI, 2004):
Values joined by “and” are separate entries in the source; they are usually repeats but may differ in a detail not shown here. Equal entries are not always repeated. Records with an inconclusive call do not appear.

System: MX-1 breast xenograft, nude mice, tumor weight T/C
Assay: NCI In Vivo Anticancer Drug Screen. Data for tumor model Human Mammary Carcinoma MX-1 Xenograft (intrarenal inoculation) in NU/NU Swiss (nude) mice
Conditions: endpoint: mean tumor weight change, higher = larger tumour
In short: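 Compound dosed to mice with transplantable tumor; vehicle group as control. Endpoint survival or tumour size, reported as T/C.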

[1] = dose: 25.0 mg/kg/injection, schedule: Q01DX010 (sc), vehicle: saline
[2] = dose: 50.0 mg/kg/injection, schedule: Q01DX010 (sc), vehicle: saline
[3] = dose: 25.0 mg/kg/injection, schedule: Q01DX010 (sc), vehicle: water
[4] = dose: 50.0 mg/kg/injection, schedule: Q01DX010 (sc), vehicle: water
[5] = dose: 12.5 mg/kg/injection, schedule: Q01DX010 (sc), vehicle: saline
[6] = dose: 150.0 mg/kg/injection, schedule: Q04DX003 (sc), vehicle: suspension in saline
[7] = dose: 600.0 mg/kg/injection, schedule: Q04DX003 (sc), vehicle: suspension in saline
[8] = dose: 1200.0 mg/kg/injection, schedule: Q04DX003 (sc), vehicle: suspension in saline
[9] = dose: 100.0 mg/kg/injection, schedule: Q01DX010 (sc), vehicle: saline
[10] = dose: 100.0 mg/kg/injection, schedule: Q01DX010 (sc), vehicle: saline with Tween-80
[11] = dose: 200.0 mg/kg/injection, schedule: Q01DX010 (sc), vehicle: saline with Tween-80
[12] = dose: 400.0 mg/kg/injection, schedule: Q01DX010 (sc), vehicle: saline with Tween-80
[13] = dose: 400.0 mg/kg/injection, schedule: Q04DX003 (sc), vehicle: saline with Tween-80
[14] = dose: 800.0 mg/kg/injection, schedule: Q04DX003 (sc), vehicle: saline with Tween-80

CSc1nc(=O)[nH]nc1SCc1ccccc1
T/C (dose: 200.0 mg/kg/injection, schedule: Q04DX003 (sc), vehicle: Klucel (hydroxypropylcellulose) (HPC)): 100 % of control
T/C (dose: 400.0 mg/kg/injection, schedule: Q04DX003 (sc), vehicle: Klucel (hydroxypropylcellulose) (HPC)): 87 % of control
T/C (dose: 800.0 mg/kg/injection, schedule: Q04DX003 (sc), vehicle: Klucel (hydroxypropylcellulose) (HPC)): 69 % of control
T/C (dose: 1600.0 mg/kg/injection, schedule: Q04DX003 (sc), vehicle: Klucel (hydroxypropylcellulose) (HPC)): 60 % of control

CC(=O)OC(C)C1C2=C(C(=O)CC1(C)O)C(=O)c1c(ccc(-c3ccc4c(c3O)C(=O)C3=C(C4=O)C(C(C)OC(C)=O)C(C)(O)CC3=O)c1O)C2=O (centres undefined)
T/C (dose: 7.5 mg/kg/injection, schedule: Q04DX003 (sc), vehicle: saline with Tween-80): 33 % of control
T/C (dose: 30.0 mg/kg/injection, schedule: Q04DX003 (sc), vehicle: saline with Tween-80): 98 % of control
T/C (dose: 60.0 mg/kg/injection, schedule: Q04DX003 (sc), vehicle: saline with Tween-80): 96 % of control

COC(=O)Nc1nc2ccc(SC)cc2c(=O)[nH]1
T/C (dose: 150.0 mg/kg/injection, schedule: Q04DX003 (sc), vehicle: Klucel (hydroxypropylcellulose) (HPC)): 83 % of control
T/C (dose: 300.0 mg/kg/injection, schedule: Q04DX003 (sc), vehicle: Klucel (hydroxypropylcellulose) (HPC)): 116 % of control
T/C (dose: 600.0 mg/kg/injection, schedule: Q04DX003 (sc), vehicle: Klucel (hydroxypropylcellulose) (HPC)): 92 % of control
T/C (dose: 1200.0 mg/kg/injection, schedule: Q04DX003 (sc), vehicle: Klucel (hydroxypropylcellulose) (HPC)): 86 % of control

O=P1(N(CCCl)CCCl)NCCCO1 (centres undefined)
T/C (dose: 6.25 mg/kg/injection, schedule: Q01DX010 (ip), vehicle: saline): 82 % of control
T/C (dose: 6.25 mg/kg/injection, schedule: Q01DX010 (sc), vehicle: saline): 56 % of control
T/C (dose: 12.5 mg/kg/injection, schedule: Q01DX010 (ip), vehicle: saline): -29 % of control
T/C (dose: 20.8 mg/kg/injection, schedule: Q04DX003 (ip), vehicle: saline): 8 % of control
T/C (dose: 25.0 mg/kg/injection, schedule: Q01DX010 (ip), vehicle: saline): -83 % of control
T/C [1]: -65 % of control and -47 % of control
T/C (dose: 41.66 mg/kg/injection, schedule: Q04DX003 (ip), vehicle: saline): -6 % of control
T/C (dose: 41.66 mg/kg/injection, schedule: Q04DX003 (sc), vehicle: saline): -53 % of control
T/C [2]: -93 % of control

CN1N=C(N)c2cn(C3OC(COP(=O)(O)O)C(O)C3O)c3ncnc1c23 (centres undefined)
T/C [3]: -92 % of control and -76 % of control
T/C [4]: -91 % of control and -75 % of control

CC[N](CC)[Ge]([CH2]C)[CH2]C.CC[N](CC)[Ge]([CH2]C)[CH2]C
T/C [5]: 190 % of control
T/C [1]: 106 % of control
T/C [2]: 106 % of control

COc1cc2c(cc1O)N=C[C@@H]1CCC(O)N1C2=O (mixture of isomers)
T/C (dose: 1.0 mg/kg/injection, schedule: Q01DX010 (sc), vehicle: saline): 295 % of control
T/C (dose: 2.0 mg/kg/injection, schedule: Q01DX010 (sc), vehicle: saline): 197 % of control
T/C (dose: 4.0 mg/kg/injection, schedule: Q01DX010 (sc), vehicle: saline): 214 % of control
T/C (dose: 8.0 mg/kg/injection, schedule: Q01DX010 (sc), vehicle: saline): 187 % of control

Cc1cn(C2CC(F)C(CO)O2)c(=O)[nH]c1=O (centres undefined)
T/C [6]: 56 % of control
T/C (dose: 300.0 mg/kg/injection, schedule: Q04DX003 (sc), vehicle: suspension in saline): 105 % of control
T/C [7]: 111 % of control
T/C [8]: 93 % of control

O=C(NC(Cc1ccc(I)cc1)C(=O)O)c1ccc(Br)cc1 (centres undefined)
T/C (dose: 75.0 mg/kg/injection, schedule: Q04DX003 (ip), vehicle: sodium bicarbonate): -67 % of control

O=C1C(=O)c2ccccc2C(O)=C1CC=C(Cl)Cl
T/C [3]: 68 % of control
T/C [4]: 110 % of control
T/C (dose: 100.0 mg/kg/injection, schedule: Q01DX010 (sc), vehicle: water): 109 % of control
T/C (dose: 200.0 mg/kg/injection, schedule: Q01DX010 (sc), vehicle: water): 106 % of control

NC1=NCN(C2OC(CO)C(O)C2O)C(=O)N1 (centres undefined)
T/C [5]: 86 % of control
T/C [1]: 32 % of control and 42 % of control
T/C (dose: 25.0 mg/kg/injection, schedule: Q04DX003 (sc), vehicle: saline): 34 % of control
T/C [2]: 3 % of control and 4 % of control
T/C (dose: 75.0 mg/kg/injection, schedule: Q04DX003 (sc), vehicle: saline): 55 % of control
T/C [9]: 6 % of control
T/C (dose: 100.0 mg/kg/injection, schedule: Q04DX003 (sc), vehicle: saline): 14 % of control and 30 % of control
T/C (dose: 200.0 mg/kg/injection, schedule: Q04DX003 (sc), vehicle: saline): 8 % of control
T/C (dose: 400.0 mg/kg/injection, schedule: Q04DX003 (sc), vehicle: saline): 2 % of control

O=C(CO)c1ccc([N+](=O)[O-])cc1
T/C [10]: 95 % of control
T/C [11]: 114 % of control
T/C [12]: 67 % of control
T/C (dose: 800.0 mg/kg/injection, schedule: Q01DX010 (sc), vehicle: saline with Tween-80): 63 % of control

COC1C(/C=C/C(C)=O)OC2OC(C)(C)OC21 (centres undefined)
T/C (dose: 75.0 mg/kg/injection, schedule: Q04DX003 (sc), vehicle: suspension in saline): 97 % of control
T/C [6]: 160 % of control
T/C [7]: 82 % of control
T/C [8]: 63 % of control

CCC1=C2C(=O)c3ccccc3C2=C(C)S(=O)(=O)O1
T/C (dose: 300.0 mg/kg/injection, schedule: Q04DX003 (sc), vehicle: saline with Tween-80): 122 % of control
T/C (dose: 600.0 mg/kg/injection, schedule: Q04DX003 (sc), vehicle: saline with Tween-80): 104 % of control
T/C (dose: 1200.0 mg/kg/injection, schedule: Q04DX003 (sc), vehicle: saline with Tween-80): 106 % of control

O=C1NC(=O)C2C3C=CC(C12)C1C2C(=O)NC(=O)C2C31 (centres undefined)
T/C [13]: 68 % of control
T/C [14]: 57 % of control

O=CN(SSN(C=O)C1CCCCC1)C1CCCCC1
T/C (dose: 50.0 mg/kg/injection, schedule: Q01DX010 (sc), vehicle: saline with Tween-80): 69 % of control
T/C [10]: 83 % of control
T/C [11]: 53 % of control
T/C [12]: 34 % of control

CC(C)[NH-].CC(C)[NH-].[Cl][Pt+2][Cl]
T/C (dose: 300.0 mg/kg/injection, schedule: Q04DX003 (sc), vehicle: dextrose): 35 % of control

COC1=C(OC)C(=O)C(Sc2ccc3ccccc3c2)=CC1=O
T/C (dose: 100.0 mg/kg/injection, schedule: Q04DX003 (sc), vehicle: saline with Tween-80): 97 % of control
T/C (dose: 200.0 mg/kg/injection, schedule: Q04DX003 (sc), vehicle: saline with Tween-80): 68 % of control
T/C [13]: 88 % of control
T/C [14]: 61 % of control

CC(=O)CC(C)=O.CC(=O)CC(C)=O.O=N[O-].O=N[O-].[Co]
T/C (dose: 75.0 mg/kg/injection, schedule: Q04DX003 (sc), vehicle: saline with Tween-80): 72 % of control
T/C (dose: 150.0 mg/kg/injection, schedule: Q04DX003 (sc), vehicle: saline with Tween-80): 67 % of control

COC1=C(C)C(=O)C2=C(C1=O)C1C3CC4=C(C(=O)C(OC)=C(C)C4=O)C(CNC(=O)C(C)=O)N3C(C#N)C(C2)N1C (centres undefined)
T/C (dose: 1.0 mg/kg/injection, schedule: Q04DX003 (sc), vehicle: Klucel (hydroxypropylcellulose) (HPC)): 104 % of control
T/C (dose: 4.0 mg/kg/injection, schedule: Q04DX003 (sc), vehicle: Klucel (hydroxypropylcellulose) (HPC)): 69 % of control

CC1(C)OC(=O)N(CO)C1=O
T/C [1]: 45 % of control
T/C [2]: 31 % of control
T/C [9]: 48 % of control
T/C (dose: 200.0 mg/kg/injection, schedule: Q01DX010 (sc), vehicle: saline): 114 % of control

c1ccc([P+](c2ccccc2)(c2ccccc2)c2ccccc2)cc1
T/C (dose: 5.0 mg/kg/injection, schedule: Q04DX003 (sc), vehicle: saline): 80 % of control
T/C (dose: 10.0 mg/kg/injection, schedule: Q04DX003 (sc), vehicle: saline): 69 % of control
T/C (dose: 20.0 mg/kg/injection, schedule: Q04DX003 (sc), vehicle: saline): 61 % of control

O.O.[NH-]C1CCCCC1[NH-].[Pt+2] (centres undefined)
T/C (dose: 2.5 mg/kg/injection, schedule: Q01DX010 (sc), vehicle: dextrose): 111 % of control
T/C (dose: 5.0 mg/kg/injection, schedule: Q01DX010 (sc), vehicle: dextrose): 76 % of control and 78 % of control
T/C (dose: 10.0 mg/kg/injection, schedule: Q01DX010 (sc), vehicle: dextrose): 55 % of control and 60 % of control
T/C (dose: 20.0 mg/kg/injection, schedule: Q01DX010 (sc), vehicle: dextrose): 26 % of control and 36 % of control
